Measured values published in patent US20060084599A1, “Compositions, methods and kits relating to notch signaling” (Maine Medical Center, priority 2003, published 2006).
Marks after values point to notes of the source that are not given here.

B1: sDl1: soluble non-transmembrane form (extracellular domain) of the Notch ligand Delta1 (protein)
chain: QVWSSGVFELKLQEFVNKKGLLGNRNCCRGGAGPPPCACRTFFRVCLKHYQASVSPEPPCTYGSAVTPVLGVDSFSLPDGGGADSAFSNPIRFPFGFTWPGTFSLIIEALHTDSPDDLATENPERLISRLATQRHLTVGEEWSQDLHSSGRTDLKYSYRFVCDEHYYGEGCSVFCRPRDDAFGHFTCGERGEKVCNPGWKGPYCTEPICLPGCDEQHGFCDKPGECKCRVGWQGRYCDECIRYPGCLHGTCQQPWQCNCQEGWGGLFCNQDLNYCTHHKPCKNGATCTNTGQGSYTCSCRPGYTGATCELGIDECDPSPCKNGGSCTDLENSYSCTCPPGFYGKICELSAMTCADGPCFNGGRCSDSPDGGYSCRCPVGYSGFNCEKKIDYCSSSPCSNGAKCVDLGDAYLCRCQAGFSGRHCDDNVDDCASSPCANGGTCRDGVNDFSCTCPPGYTGRNCSAPVSRCEHAPCHNGATCHERGHRYVCECARGYGGPNCQFLLPELPPGPAVVDLTEKLEGQGGPFPW
modifications: left off: small tags and cut ends
notes: soluble non-transmembrane form (extracellular domain) of the Notch ligand Delta1

How the values were obtained:
[1] = tested on: NCSC populations; assay: Clonogenic differentiation assay of NCSC: ligand pre-incubation, then BMP2 challenge; type: cell-based, mouse; conditions: then 1 ng/ml BMP2 seven days, mean ± SD
Method: Clonogenic assays were performed as described (Stemple et al., 1992, Cell 71:973-985). Briefly, populations of murine NCSC were plated at a clonal density and maintained for a maximum of 14 days in Morrison media supplemented with 15% chick embryo extract (Morrison et al., 1999, Cell 96:737-749). The resulting clones were fixed in an acetic acid:ethanol solution (2:1) and stained with antibodies against peripherin (Chemicon) to detect neurons, smooth muscle actin (Sigma) to detect myofibroblasts, and GFAP (Chemicon) to detect Schwann cells. Clones were scored based on the appearance of just one phenotypic representative. The number and percentage of clones containing neurons only (N), Schwann cells only (S), myofibroblasts only (M), N+S, N+M, N+S+M, and S+M were scored at day 14 unless otherwise stated. The production of each representative phenotype in each individual clone was also scored to complement the clonal population assay.
NCSC Retain Neurogenic capacity in the presence of sJ1. A clonogenic differentiation assay was performed using mouse NSCS populations as described previously (Kubu et al., 2002, Dev. Biol. 244:199-214; Stemple et al., 1992, Cell 71:973-985). The cells were incubated in Stemple media (Stemple et al., 1992) with or without 5 nM sDl1 or 7.5 nM sJ1 for the time periods set forth in Table 1. After the initial incubation period, cells were washed and neuronal differentiation was challenged in the presence of 1 ng/ml BMP2 for an additional seven days. The resulting clones were fixed and stained for detection of neural crest markers. The data disclosed in Table 1 is presented as the percentage of glial-only, neuron-only, and neuron colonies containing either smooth muscle or glial markers as the mean ± standard deviation (SD) of three experiments originating from three independent cell isolations. Note the retention of neurogenic differentiation capacity in sJ1-treated cells (*=p<0.01) compared with the sDl1-treated cells.

[2] = tested on: Src; assay: Src pY418 immunoblot; type: cell-based, mouse; conditions: stable NIH 3T3 cell transfectants expressing the ligand
Method: Immunoblot Analysis. Cell lysates from insert-less vector sDl1 and sJ1 NIH 3T3 cell transfectants were prepared in 20 mM Tris HCl, pH 7.5, containing 300 mM sucrose, 60 mM—KCl, 15 mM NaCl, 0.5 mM EDTA, 0.5% (v/v) Triton X-100, 1 mM phenylmethylsulfonyl fluoride, 10 μg/ml leupeptin, 2 μg/ml aprotinin, 0.1% (w/v) deoxycholic acid and 1 mM sodium orthovanadate. Samples of equal protein content were subjected to SDS-PAGE and immunoblot analysis was performed as previously described (Small et al., 2001, J. Biol. Chem. 276:32022-32030) using either a rabbit anti-Src [pY418] phosphospecific antibody (Biosource International), a rabbit anti-total Src antibody (Santa Cruz Biotechnology), a rabbit polyclonal anti-cortactin antibody (a gift from Dr. Xi Zhan, American Red Cross), or an anti-phosphotyrosine antibody (Upstate). Immunoprecipitation of cortactin was performed as previously described (Zhan et al., 1993, J. Biol. Chem. 268:24427-24431).

[3] = tested on: NIH 3T3 cell transfectants; assay: Colony formation in soft agar (anchorage-independent growth); type: cell-based, murine; conditions: stable NIH 3T3 cell transfectants expressing the ligand
Method: Clonal populations of NIH 3T3 cells stably transfected with vector control, soluble Jagged1 (sJ1), constitutively active Notch1 (caN1), constitutively active Notch 2 (caN2), dominant negative Notch 1 (dnN1), dominant negative Notch 2 (dnN2), an oncogenic mutant of FGF1 engineered with the FGF4 signal peptide sequence (hst-β (FGF4):FGF1), or constitutively active oncogenic Ras construct (caRas), were plated on 6 cm tissue culture dishes with 0.5% agar in an overlay containing DMEM (Gibco BRL) media, 10% bovine calf serum (BCS; Hyclone), and 0.33% agar at 1.5×10^3 cells/dish. As indicated, some dishes were also treated with 1 μM of the FGFR1-specific inhibitor, PD166866 (Panek et al., 1998, J. Pharmacol. Exp. Ther. 286: 569-577) and/or 10 ng/ml recombinant human FGF1 and 10 U/ml heparin (Sigma). Cells were fed with 0.5 ml of media with or without FGF1 and/or the FGFR1-specific inhibitor every 3 days as indicated. Twenty days after plating, colonies were stained with p-iodonitrotetrazolium violet (Sigma) for visualization. Quantitation of colony formation was achieved by counting all p-iodonitrotetrazolium violet-stained colonies consisting of more than 4 cells under a Zeiss Stemi SVII Apo dissecting microscope.
Anchorage-Dependent and -Independent Cell Growth Assays. Approximately 3×10^4 cells were plated on fibronectin (10 μg/cm^2)-coated in 12-well cell culture dishes (Falcon) in DMEM containing 10% BCS (v/v) (Hyclone). Three wells of the individual NIH 3T3 cell transfectants were harvested every third day and cell number was quantitated using a hemocytometer. Anchorage-independent cell growth was evaluated by plating in duplicate approximately 1.7×10^3 cells in DMEM containing 0.5% (w/v) agar (Sigma) 10% (v/v) BCS into 5 cm plastic dishes (Falcon) as previously described (Small et al., 2003, J. Biol. Chem. 278:16405-16413).

[4] = tested on: FGF gene family transcripts; assay: RT-PCR of FGF gene family expression; type: cell-based, murine; conditions: stable NIH 3T3 cell transfectants expressing the ligand
Method: Total RNA from vector control, sJ1, caN1 and dnN1 stable transfectants was isolated using Tri Reagent™ (Sigma) according to the manufacturer's protocol. cDNA was obtained from 5 μg total RNA with SuperScript™ (Invitrogen) reverse transcriptase using an oligo dT primer (Invitrogen). The following specific primers were purchased from IDT and used for RT-PCR analysis. Sense primers are indicated by (s); Antisense primers are indicated by (as): […]
PCR amplification was performed for 45 cycles as follows: 40 seconds at 94° C., 40 seconds at 50° C. (for FGF2, FGF3, FGF4 and FGFR3) or at 55° C. (for FGF6, FGF7, FGF8, FGF9, FGF10, FGFR1 and FGFR2), 1 minute at 72° C. For FGF5, RT-PCR analysis was performed as described (Ozawa et al., 1998, J. Biol. Chem. 273: 29262-29271) and all amplified DNA was visualized with ethidium bromide on 1.5% agarose gels.

[5] = 5 nM sDl1 or 7.5 nM sJ1 for 24 hrs

Molecule | Glial-Only colonies [1, 5] [%] | Neuron-Containing colonies [1, 5] | Neuron-Only colonies [1, 5] | Glial-Only colonies ([1]; 7.5 nM sJ1 for 72 hrs) [%*] | Neuron-Containing colonies ([1]; 7.5 nM sJ1 for 72 hrs) [%*] | Neuron-Only colonies ([1]; 7.5 nM sJ1 for 72 hrs) [%*] | Glial-Only colonies ([1]; 7.5 nM sJ1 for 120 hrs) [%*] | Neuron-Containing colonies ([1]; 7.5 nM sJ1 for 120 hrs) [%*] | Neuron-Only colonies ([1]; 7.5 nM sJ1 for 120 hrs) [%*] | Glial-Only colonies ([1]; 7.5 nM sJ1 for 168 hrs) [%*] | Neuron-Containing colonies ([1]; 7.5 nM sJ1 for 168 hrs) [%] | Neuron-Only colonies ([1]; 7.5 nM sJ1 for 168 hrs) [%*] | level of active Src [2] | anchorage-independent growth of transfectants [3] | FGF gene family mRNA expression in transfectants [4]
sJ1: Soluble Jagged1, amino acid residues about 1 to 1067 (SEQ ID NO:3) of full-length human Jagged1 | 0 | 71.4 ± 6.2%* | 54.4 ± 8.4%* | 0.8 ± 1.4 | 74.8 ± 16.3 | 42.8 ± 6.6 | 5.82 ± 3.4 | 52.01 ± 14.1 | 13.43 ± 6.5 | 13.3 ± 4.5 | 35.03 ± 9.1 | 6.5 ± 1.3 | increase in the level of active Src | form colonies in soft agar | expression of mRNAs encoding FGF1, FGF3, FGF4, and FGF5
B1 | 57.8 ± 9.9 | 7.0 ± 5.7% | 0% |  |  |  |  |  |  |  |  |  | increase in the level of active Src | form colonies in soft agar | express the FGF3, FGF4 and FGF9 transcripts
